Assay results from patent publication USRE32300E, “Basic amino or ammonium antimicrobial agent-polyethylene glycol ester surfactant-betaine and/or amine oxide surfactant compositions and method of use thereof” (Sterling Drug Inc., priority 1985, dated 1986).

Test system: Staphylococcus aureus ATCC 6538
Experiment: serial dilution test against Staphylococcus aureus ATCC 6538 (compatibility of antimicrobial agents with prototype vehicle)
Type: cell-based
Settings: Id expressed as free base, IVa-IVc as cation (A=Br)
Procedure: Compatability of the antimicrobial agents of Formula Id, Formula IIa, Formula IVa (A=Br), Formula IVb (A=Br) and Formula IVc (A=Br) with a prototype vehicle of the invention was tested by a serial dilution test against Staphylococcus aureus ATCC 6538. Volumes of two milliliters were used. Dilutions were in tryptosephosphate broth. Incubation was for 16-18 hours at 37° C. Growth was verified with 2,3,5-triphenyltetrazoliumchloride. The inoculum was 1.8×10^5 viable cells per tube. There follows the formula of the prototype vehicle.

SMILES | Minimum Inhibitory Concentration (MIC) (added vehicle 125.0 μg/ml) [µg/mL] | Minimum Inhibitory Concentration (MIC) (added vehicle 250.0 μg/ml) [µg/mL] | Minimum Inhibitory Concentration (MIC) (added vehicle 500.0 μg/ml) [µg/mL] | Minimum Inhibitory Concentration (MIC) (added vehicle 2000.0 μg/ml) [µg/mL] | Minimum Inhibitory Concentration (MIC) (added vehicle 8000.0 μg/ml) [µg/mL] | Minimum Inhibitory Concentration (MIC) (added vehicle 0 μg/ml) [µg/mL] | Minimum Inhibitory Concentration (MIC) (added vehicle 15.6 μg/ml) [µg/mL] | Minimum Inhibitory Concentration (MIC) (added vehicle 31.2 μg/ml) [µg/mL] | Minimum Inhibitory Concentration (MIC) (added vehicle 62.5 μg/ml) [µg/mL]
CCCCCCCNc1cc[n+](CCCCCCCCCCCC[n+]2ccc(NCCCCCCC)cc2)cc1 [Formula IVa] | 0.10 | 0.10 | 0.10 | 0.10 | 0.10 | – | – | – | –
CCCCCCCCNc1cc[n+](CCCCCCCCCC[n+]2ccc(NCCCCCCCC)cc2)cc1 [Formula IVb] | 0.5 | – | – | – | – | 0.5 | 0.5 | 0.5 | 0.5
